In brackets after ≈: the same amount, converted by molar mass.

Holding throughout (assay type): functional
The species entered for experiment [1] is Rattus norvegicus. Briefly: Antiovulatory activity expressed as ratio of rats ovulated/total rats at a dose of 0.5 microg; 5/5.
The species entered for experiment [2] is Rattus norvegicus. Briefly: Antiovulatory activity expressed as ratio of rats ovulated/total rats at a dose of 0.5 microg; 2/9.
For experiment [3], the species on record is Rattus norvegicus. Briefly: Antiovulatory activity expressed as ratio of rats ovulated/total rats at a dose of 1.0 ug; […].
Experiment [4] is filed under the species Rattus norvegicus. The experiment is described as follows: Evaluated for histamine releasing activity.
The species named for experiment [5] is Rattus norvegicus. Briefly: Antiovulatory activity expressed as ratio of rats ovulated/total rats at a dose of 1.0 ug; 1/6.
The species entered for experiment [6] is Rattus norvegicus. Briefly: Antiovulatory activity expressed as ratio of rats ovulated/total rats at a dose of 0.5 microg; 3/13.
The species entered for experiment [7] is Rattus norvegicus. Briefly: Antiovulatory activity expressed as ratio of rats ovulated/total rats at a dose of 0.5 microg; 6/6.
The species entered for experiment [8] is Rattus norvegicus. The experiment is described as follows: Antiovulatory activity expressed as ratio of rats ovulated/total rats at a dose of 0.5 microg; 7/7.
The species entered for experiment [9] is Rattus norvegicus. The experiment is described as follows: Antiovulatory activity expressed as ratio of rats ovulated/total rats at a dose of 1.0 ug.
Experiment [10] is filed under the species Rattus norvegicus. Briefly: Antiovulatory activity expressed as ratio of rats ovulated/total rats at a dose of 0.5 microg; 0/8.
For experiment [11], the species on record is Rattus norvegicus. The experiment is described as follows: Antiovulatory activity expressed as ratio of rats ovulated/total rats at a dose of 0.25 microg; 6/8.
Experiment [12] is filed under the species Rattus norvegicus. The experiment is described as follows: Antiovulatory activity expressed as ratio of rats ovulated/total rats at a dose of 0.5 microg; 3/5.
The species entered for experiment [13] is Rattus norvegicus. The experiment is described as follows: Antiovulatory activity expressed as ratio of rats ovulated/total rats at a dose of 0.5 microg; 2/6.
For experiment [14], the species on record is Rattus norvegicus. Briefly: Antiovulatory activity expressed as ratio of rats ovulated/total rats at a dose of 0.5 microg; 4/6.

With `CC(C)C[C@H](NC(=O)[C@@H](CCCCNC(=O)c1ccc(N)nc1)NC(=O)[C@H](CCCCNC(=O)c1ccccn1)NC(=O)[C@@H](NC(=O)[C@@H](Cc1cccnc1)NC(=O)[C@@H](Cc1ccc(Cl)cc1)NC(=O)[C@H](N)Cc1ccc2ccccc2c1)[C@@H](C)O)C(=O)N[C@@H](CCCN=C(N)N)C(=O)N1CCC[C@H]1C(=O)N[C@H](C)C(=O)O`, the Ratio in the experiment filed under Rattus norvegicus [1] is on record as 5.
`CC(=O)N[C@H](Cc1ccc2ccccc2c1)C(=O)N[C@H](Cc1ccc(Cl)cc1)C(=O)N[C@H](Cc1cccnc1)C(=O)N[C@@H](CO)C(=O)N[C@@H](CCCCNC(=O)c1cccnc1)C(=O)N[C@H](CCCCNC(=O)c1cnccn1)C(=O)N[C@@H](CC(C)C)C(=O)N[C@@H](CCCCN)C(=O)N1CCC[C@H]1C(=O)N[C@H](C)C(=O)O`: the Ratio in the experiment listed under Rattus norvegicus [2] was 2; in the experiment listed under Rattus norvegicus [3], 1. The compound further displayed an ED50 in the experiment listed under Rattus norvegicus [4] of 263 µg/mL (≈ 170 µM).
On to `CC(=O)N[C@H](Cc1ccc2ccccc2c1)C(=O)N[C@H](Cc1ccc(Cl)cc1)C(=O)N[C@H](Cc1cccnc1)C(=O)N[C@@H](CO)C(=O)N[C@@H](CCCCNC(=O)c1ccccn1)C(=O)N[C@H](CCCCNC(=O)c1nccnc1N)C(=O)N[C@@H](CC(C)C)C(=O)N[C@@H](CCCCNC(C)C)C(=O)N1CCC[C@H]1C(=O)N[C@H](C)C(=O)O`, for which the values for the Ratio in the experiment listed under Rattus norvegicus [5] and in the experiment filed under Rattus norvegicus [6] were 1 and 3, respectively. In the experiment filed under Rattus norvegicus [4], this compound came in with an ED50 of 100 µg/mL (≈ 62.2 µM).
For the compound `CC(=O)N[C@H](Cc1ccc2ccccc2c1)C(=O)N[C@H](Cc1ccc(Cl)cc1)C(=O)N[C@H](Cc1cccnc1)C(=O)N[C@@H](CO)C(=O)N[C@@H](CCCCNC(=O)c1ccccn1)C(=O)N[C@H](CCCCNC(=O)c1cnccn1)C(=O)N[C@@H](CC(C)C)C(=O)N[C@@H](CCCCN)C(=O)N1CCC[C@H]1C(=O)N[C@H](C)C(=O)O`, in the experiment listed under Rattus norvegicus [7], the “Number of rats ovulated” value is given as 6.
For `CC(=O)N[C@H](Cc1ccc2ccccc2c1)C(=O)N[C@H](Cc1ccc(Cl)cc1)C(=O)N[C@H](Cc1cccnc1)C(=O)N[C@@H](CO)C(=O)N[C@@H](CCCCNC(=O)c1ccccn1)C(=O)N[C@H](CCCCNC(=O)c1cccnc1N)C(=O)N[C@@H](CC(C)C)C(=O)N[C@@H](CCCN=C(N)N)C(=O)N1CCC[C@H]1C(=O)N[C@H](C)C(=O)O`, in the experiment filed under Rattus norvegicus [8], the “Number of rats ovulated” value came out at 7.
As to `CC(=O)N[C@H](Cc1ccc2ccccc2c1)C(=O)N[C@H](Cc1ccc(Cl)cc1)C(=O)N[C@H](Cc1cccnc1)C(=O)N[C@@H](CO)C(=O)N[C@@H](CCCCNC(=O)c1ccc(N)nc1)C(=O)N[C@H](CCCCNC(=O)c1ccc(N)nc1)C(=O)N[C@@H](CC(C)C)C(=O)N[C@@H](CCCCNC(C)C)C(=O)N1CCC[C@H]1C(=O)N[C@H](C)C(=O)O`, the “Number of rats ovulated” value in the experiment filed under Rattus norvegicus [8] turned out to be 7.
Regarding `CC(=O)N[C@H](Cc1ccc2ccccc2c1)C(=O)N[C@H](Cc1ccc(Cl)cc1)C(=O)N[C@H](Cc1cccnc1)C(=O)N[C@@H](CO)C(=O)N[C@@H](CCCCNC(=O)c1cccc(N)n1)C(=O)N[C@H](CCCCNC(=O)c1cccc(N)n1)C(=O)N[C@@H](CC(C)C)C(=O)N[C@@H](CCCN=C(N)N)C(=O)N1CCC[C@H]1C(=O)N[C@H](C)C(=O)O`, the “Number of rats ovulated” value in the experiment listed under Rattus norvegicus [7] amounted to 6.
With `CC(=O)N[C@H](Cc1ccc2ccccc2c1)C(=O)N[C@H](Cc1ccc(Cl)cc1)C(=O)N[C@H](Cc1cccnc1)C(=O)N[C@@H](CO)C(=O)N[C@@H](CCCCNC(=O)c1ccccn1)C(=O)N[C@H](CCCCNC(=O)c1nccnc1N)C(=O)N[C@@H](CC(C)C)C(=O)N[C@@H](CCCN=C(N)N)C(=O)N1CCC[C@H]1C(=O)N[C@H](C)C(=O)O`, the “Number of rats ovulated” value in the experiment listed under Rattus norvegicus [7] came out at 6.
As to `CC(=O)N[C@H](Cc1ccc2ccccc2c1)C(=O)N[C@H](Cc1ccc(Cl)cc1)C(=O)N[C@H](Cc1cccnc1)C(=O)N[C@@H](CO)C(=O)N[C@@H](CCCCNC(=O)c1ccccn1)C(=O)N[C@H](CCCNC(=O)c1ccc(N)nc1)C(=O)N[C@@H](CC(C)C)C(=O)N[C@@H](CCCN=C(N)N)C(=O)N1CCC[C@H]1C(=O)N[C@H](C)C(=O)O`, the Ratio was 0 in the experiment listed under Rattus norvegicus [9], 0 in the experiment filed under Rattus norvegicus [10] and 6 in the experiment listed under Rattus norvegicus [11]. This compound also registered an ED50 in the experiment listed under Rattus norvegicus [4] of 100 µg/mL (≈ 63.3 µM).
For the compound `CC(C)C[C@H](NC(=O)[C@@H](CCCCNC(=O)c1ccc(N)nc1)NC(=O)[C@H](Cc1ccc(O)cc1)NC(=O)[C@H](CO)NC(=O)[C@@H](Cc1cccnc1)NC(=O)[C@@H](Cc1ccc(Cl)cc1)NC(=O)[C@H](N)Cc1ccc2ccccc2c1)C(=O)N[C@@H](CCCN=C(N)N)C(=O)N1CCC[C@H]1C(=O)N[C@H](C)C(=O)O`, the Ratio in the experiment listed under Rattus norvegicus [12] is 3.
On to `CC(=O)N[C@H](Cc1ccc2ccccc2c1)C(=O)N[C@H](Cc1ccc(Cl)cc1)C(=O)N[C@H](Cc1cccnc1)C(=O)N[C@@H](CO)C(=O)N[C@@H](CCCCNC(=O)c1ccccn1)C(=O)N[C@H](CCCCNC(=O)c1cccc(N)n1)C(=O)N[C@@H](CC(C)C)C(=O)N[C@@H](CCCN=C(N)N)C(=O)N1CCC[C@H]1C(=O)N[C@H](C)C(=O)O`, for which the Ratio in the experiment listed under Rattus norvegicus [13] was 2.
Take `CC(=O)N[C@H](Cc1ccc2ccccc2c1)C(=O)N[C@H](Cc1ccc(Cl)cc1)C(=O)N[C@H](Cc1cccnc1)C(=O)N[C@@H](CO)C(=O)N[C@@H](CCCNC(=O)c1cnccn1)C(=O)N[C@H](CCCCNC(=O)c1ccc(N)nc1)C(=O)N[C@@H](CC(C)C)C(=O)N[C@@H](CCCN=C(N)N)C(=O)N1CCC[C@H]1C(=O)N[C@H](C)C(=O)O`: in the experiment filed under Rattus norvegicus [7], the “Number of rats ovulated” value was 6.
As to `CC(=O)N[C@H](Cc1ccc2ccccc2c1)C(=O)N[C@H](Cc1ccc(Cl)cc1)C(=O)N[C@H](Cc1cccnc1)C(=O)N[C@@H](CO)C(=O)N[C@@H](CCCCNC(=O)c1cccc(N)n1)C(=O)N[C@H](CCCCNC(=O)c1cccc(N)n1)C(=O)N[C@@H](CC(C)C)C(=O)N[C@@H](CCCCNC(C)C)C(=O)N1CCC[C@H]1C(=O)N[C@H](C)C(=O)O`, the “Number of rats ovulated” value in the experiment filed under Rattus norvegicus [8] stood at 7.
With `CC(=O)N[C@H](Cc1ccc2ccccc2c1)C(=O)N[C@H](Cc1ccc(Cl)cc1)C(=O)N[C@H](Cc1cccnc1)C(=O)N[C@@H](CO)C(=O)N[C@@H](CCCCNC(=O)c1ccccn1)C(=O)N[C@H](CCCCNC(=O)c1ncccc1N)C(=O)N[C@@H](CC(C)C)C(=O)N[C@@H](CCCCNC(C)C)C(=O)N1CCC[C@H]1C(=O)N[C@H](C)C(=O)O`, the Ratio in the experiment listed under Rattus norvegicus [14] stood at 4.
As to `CC(=O)N[C@H](Cc1ccc2ccccc2c1)C(=O)N[C@H](Cc1ccc(Cl)cc1)C(=O)N[C@H](Cc1cccnc1)C(=O)N[C@@H](CO)C(=O)N[C@@H](CCCCNC(=O)c1cccnc1N)C(=O)N[C@H](CCCCNC(=O)c1cccnc1N)C(=O)N[C@@H](CC(C)C)C(=O)N[C@@H](CCCCNC(C)C)C(=O)N1CCC[C@H]1C(=O)N[C@H](C)C(=O)O`, the “Number of rats ovulated” value in the experiment listed under Rattus norvegicus [8] is listed as 7.
As for `CNC[C@@H](NC(=O)[C@@H]1CCCN1C(=O)[C@H](CCCN=C(N)N)NC(=O)[C@H](CC(C)C)NC(=O)[C@@H](CCCCNC(=O)c1ccc(N)nc1)NC(=O)[C@H](CCCCNC(=O)c1ccccn1)NC(=O)[C@H](CO)NC(=O)[C@@H](Cc1cccnc1)NC(=O)[C@@H](Cc1ccc(Cl)cc1)NC(=O)[C@H](N)Cc1ccc2ccccc2c1)C(=O)O`, the Ratio in the experiment filed under Rattus norvegicus [9] is recorded as 0; in the experiment listed under Rattus norvegicus [10], 0; in the experiment filed under Rattus norvegicus [11], 6. In the experiment listed under Rattus norvegicus [4], this compound yielded an ED50 of 31 µg/mL (≈ 19.6 µM).
With `CC(=O)N[C@H](Cc1ccc2ccccc2c1)C(=O)N[C@H](Cc1ccc(Cl)cc1)C(=O)N[C@H](Cc1cccnc1)C(=O)N[C@@H](CO)C(=O)N[C@@H](CCCCNC(=O)c1ccc(N)nc1)C(=O)N[C@H](CCCCNC(=O)c1ccc(N)nc1)C(=O)N[C@@H](CC(C)C)C(=O)N[C@@H](CCCN=C(N)N)C(=O)N1CCC[C@H]1C(=O)N[C@H](C)C(=O)O`, in the experiment filed under Rattus norvegicus [7], the “Number of rats ovulated” value is 6.
Turning to `CC(=O)N[C@H](Cc1cnc2ccccc2c1)C(=O)N[C@H](Cc1ccc(Cl)cc1)C(=O)N[C@H](Cc1cccnc1)C(=O)N[C@@H](CO)C(=O)N[C@@H](CCCNC(=O)c1cnccn1)C(=O)N[C@H](CCCNC(=O)c1ccc(N)nc1)C(=O)N[C@@H](CC(C)C)C(=O)N[C@@H](CCCN=C(N)N)C(=O)N1CCC[C@H]1C(=O)N[C@H](C)C(=O)O`, in the experiment filed under Rattus norvegicus [1], the Ratio is listed as 5.
In the case of `CC(=O)N[C@H](Cc1ccc2ccccc2c1)C(=O)N[C@H](Cc1ccc(Cl)cc1)C(=O)N[C@H](Cc1cccnc1)C(=O)N[C@@H](CO)C(=O)N[C@@H](CCCCNC(=O)c1nccnc1N)C(=O)N[C@H](CCCCNC(=O)c1nccnc1N)C(=O)N[C@@H](CC(C)C)C(=O)N[C@@H](CCCN=C(N)N)C(=O)N1CCC[C@H]1C(=O)N[C@H](C)C(=O)O`, in the experiment filed under Rattus norvegicus [14], the Ratio turned out to be 4.
Turning to `C[C@@H](NC(=O)[C@@H]1CCCN1C(=O)[C@H](CCCN=C(N)N)NC(=O)[C@H](Cc1c[nH]cn1)NC(=O)[C@@H](CCCCNC(=O)c1ccc(N)nc1)NC(=O)[C@H](CCCCNC(=O)c1ccccn1)NC(=O)[C@H](CO)NC(=O)[C@@H](Cc1cccnc1)NC(=O)[C@@H](Cc1ccc(Cl)cc1)NC(=O)[C@H](N)Cc1ccc2ccccc2c1)C(=O)O`, the “Number of rats ovulated” value in the experiment listed under Rattus norvegicus [7] is 6.
The same measure, in the same setting: under `CC(=O)N[C@H](Cc1ccc2ccccc2c1)C(=O)N[C@H](Cc1ccc(Cl)cc1)C(=O)N[C@H](Cc1cccnc1)C(=O)N[C@@H](CO)C(=O)N[C@@H](CCCCNC(=O)c1cnccn1)C(=O)N[C@H](CCCCNC(=O)c1cccnc1)C(=O)N[C@@H](CC(C)C)C(=O)N[C@@H](CCCCN)C(=O)N1CCC[C@H]1C(=O)N[C@H](C)C(=O)O` stands 6.
Still for that read-out and setting: under `CC(=O)N[C@H](Cc1ccc2ccccc2c1)C(=O)N[C@H](Cc1ccc(Cl)cc1)C(=O)N[C@H](Cc1cccnc1)C(=O)N[C@@H](CO)C(=O)N[C@@H](CCCCNC(=O)c1cccnc1N)C(=O)N[C@H](CCCCNC(=O)c1cccnc1N)C(=O)N[C@@H](CC(C)C)C(=O)N[C@@H](CCCN=C(N)N)C(=O)N1CCC[C@H]1C(=O)N[C@H](C)C(=O)O` stands 6.

Values taken from ChEMBL document CHEMBL1127579, “Novel, potent luteinizing hormone-releasing hormone antagonists with improved solubility in water” (1994).
